Legend:
cells = assay: MTT assay for cell viability (cell toxicity); type: cell-based; settings: highest concentration tested 1 mM
Protocol: BABIM, SW066, and DAP092 were assessed for cell toxicity using the MTT assay for cell viability described in T. Mossman, J. Immunol. Methods 65, 55-63 (1983). […] 10 μl of MTT reagent was added to each wall and incubated for four hours at 38° C. Acid-isopropanol was added to stop the reaction and plates were read within one hour at 570 nm and 630 nm. The 630 nm reading was subtracted from the 570 nm reading. No toxicity was reported for BABIM.

[1] = test system: Delaware Variant A strain of IBDV; assay: In vitro IBDV replication assay in chick embryo fibroblasts (viral antigen capture ELISA); settings: compounds maintained in the culture medium throughout
APHIS isolate of IBDV = assay: In vivo drug treatment of IBDV-challenged SPF leghorn chickens (Example 10); settings: for appearance of bursas upon necropsy: 20 mg/kg nares/cloaca; for appearance of bursas upon necropsy / Lymphocyte Population Per Gram of Bursal tissue, Percentage Uninfected Control: three days; for Lymphocyte Population Per Gram of Bursal tissue, Percentage Uninfected Control: 100 EID APHIS IBDV at three weeks of age, 20 mg/kg, half in the nares, half in the cloaca; for lymphocyte populations: three days after infection
Protocol: SPF leghorn chickens were challenged at three weeks of age with an 100 EID APHIS isolate of IBDV. Approximately 12 birds were contained in an isolator unit with four units being employed. In each isolator unit, two birds received either drug or a placebo. One unit contained uninfected controls. The birds are treated with the drugs SW066, DAP092, DB453, DB197, and DB203 for three days. Half of the drug dosage was administered in the nares, while the second half was administered in the cloaca, at a dosage of 20 mg/kg. At necropsy, the birds were weighed, their bursa removed, weighed, and ground with a tissue homogenizer. The ground bursa material was evaluated for lymphocyte counts and viral load.

APHIS strain IBDV = assay: Leghorn drug study (Example 13); type: in vivo, Leghorns; settings: for protection against IBDV (rank order): 100 EID APHIS IBDV, one mL of 4 mg/ml orally at challenge, 24 and 48 hours PI, necropsy three days post-challenge
Protocol: The procedure according to Example 12 was carried out with the following modifications: the drugs SW066, DB197, DB528, DB203 and DAP092 were tested in three week old Leghorns for protection against 100 EID of APHIS strain IBDV. The drugs were suspended in histidine-saline and used at a concentration of 4 mg/ml. One mL of drug was administered orally on the day of challenge (30 minutes prior to challenge), 24 hours PI and 48 hours PI. Birds were euthanised by CO2 inhalation and necropsied at three days post-challenge. Each drug and placebo cohort consisted of eight leghorns. Birds were weighed and sorted on the day of challenge to co-mingle birds of different weights and monitor drug dose per body weight. Birds were raised in isolation units. Each unit held 12 birds, two birds for each of the six cohorts (i.e., placebo, SW066, DB197, DB528, DB203 and DAP092). In addition, 12 uninfected birds were housed in a separate isolation unit.
The viral load of the bursa was determined by antigen capture ELISA, as described in Example 2, while absolute lymphocyte cell counts were determined by hemocytometer.

IBDV [2] = assay: Virucidal effect: viability of virions produced in the presence of drug, second set of CEF cultures; type: cell-based, infectious bursal disease virus
Protocol: IBDV-infected cells were treated with varying concentrations (0.01 μM, 0.1 μM, 1 μM, 10 μM and 100 μM) of SW066 for 24 hours. After 24 hours, SW066 was washed away from the cell. After 72 hours of total incubation time (i.e., after the life cycle of IBDV is predicted to be complete), the resulting virions were harvested, as described above.
In order to determine if the virions produced in the presence of drug are viable, varying dilutions of these viral preparations were used to inoculate a second set of CEF cultures. Concentrations of the viral dilutions were as follows: 1.00E-10, 1.00E-09, 1.00E-08, 1.00E-07, 1.00E-06 and 1.00E-05. After 72 hours of incubation, cells were treated by a freeze-thaw method to harvest viral particles, and were assayed by ELISA as described in Example 2.

IBDV [3] = type: cell-based, infectious bursal disease virus
IBDV Variant A = type: cell-based, infectious bursal disease virus; settings: 0.1 mM drug
APHIS IBDV strain [4] = assay: Evaluation of drug effect to prevent or inhibit IBD, SW066 intravenous and prodrug oral (Example 12); type: in vivo, chicks
Protocol: The procedure according to Example 11 was carried out, with a variation in which chicks were placed in six groups of ten birds each, as follows: (1) no virus control (oral placebo), (2) no virus control (SW066 intravenous), (3) no virus control (prodrug of SW066 oral), (4) APHIS IBDV strain 130 EID (oral placebo), (5) APHIS IBDV strain 130 EID (SW066 intravenous), and (6) APHIS IBDV strain 130 EID (prodrug of SW066 oral). The birds were challenged at three weeks of age with 100 μl of APHIS strain divided between the eye and nares. Drug was administered intravenously or orally. The prodrug version of SW066 was used via the oral route to enhance absorption. Daily drug treatment began the same day and thirty minutes prior to challenge. After seven days, survivors were sacrificed and necropsied.

APHIS IBDV strain [5] = assay: Evaluation of drug effect to prevent or inhibit IBD, oral SW066 (Example 11); type: in vivo, chicks
Protocol: Chicks were placed in four groups of nine birds each. The four groups were: (1) no virus control (placebo), (2) no virus control (treated with SW066), (3) APHIS IBDV strain at 130 EID (placebo), and (4) APHIS IBDV strain at 130 EID (treated with SW066). The birds were challenged at two weeks of age with 10 μL of the APHIS strain divided between the eye and nares. The drug was administered orally, one mL at a concentration of five mg/mL. […] Daily drug treatment began the same day and 30 minutes prior to challenge. After seven days, survivors were sacrificed and necropsied.
The virus is believed to cause necrosis in the bursa and to reach a plateau of virus level at three days post-challenge. As the inflammation begins to subside, the organ decreases in size and is severely atrophied at seven to ten days post-challenge. The bursa weight is accordingly a measure of bursal disease severity and was used in this experiment to detect differences between treatment groups.

IBDV [6] = assay: Trypsin competition experiment; type: cell-based, infectious bursal disease virus; settings: trypsin 1 mg/ml added to the cells in culture
Protocol: It is known that the addition of trypsin can enhance the attachment and penetration of respiratory syncytial virus and rotavirus. A trypsin competition experiment was performed in order to confirm that the activity of the inventive compounds of the present invention is not the result of protease-mediated virus attachment or penetration, as follows: trypsin (1 mg/ml) was added to the cells in culture described above in Example 6.

## N=C(N)c1ccc2nc(Cc3nc4ccc(C(=N)N)cc4[nH]3)[nH]c2c1 [BABIM]
cells
  cell toxicity (MTT assay): No toxicity
[1]
  inhibition of IBDV replication (virion formation): most significant decrease of virion formation

## Cc1cnc(-c2ccc(C3=NCCN3)cc2)nc1-c1ccc(C2=NCCN2)cc1 [DB197]
APHIS isolate of IBDV
  appearance of bursas upon necropsy: appeared identical to those from the uninfected control group
  Lymphocyte Population Per Gram of Bursal tissue, Percentage Uninfected Control: 60.5 Percentage Uninfected Control
  lymphocyte populations: maintenance of relatively normal lymphocyte populations
APHIS strain IBDV
  protection against IBDV (rank order): the most protection
APHIS strain IBDV; t-test, p-value=0.01
  lymph per bursa cell number versus uninfected controls: significantly different from uninfected controls
APHIS strain IBDV; three days post-challenge
  lymph per bursa cell number (rank among groups): the highest

## COc1cc(C2=NCCN2)ccc1-c1ccnc(-c2ccc(C3=NCCN3)cc2)n1 [DB203]
APHIS isolate of IBDV
  appearance of bursas upon necropsy: appeared identical to those from the uninfected control group
  Lymphocyte Population Per Gram of Bursal tissue, Percentage Uninfected Control: 51.3 Percentage Uninfected Control
  lymphocyte populations: maintenance of relatively normal lymphocyte populations
APHIS strain IBDV
  protection against IBDV (rank order): DB197>DB203>DB528>DAP092>SW066

## N=C(N)c1ccc2oc3ccc(C(=N)N)cc3c2c1 [SW066]
APHIS isolate of IBDV
  Lymphocyte Population Per Gram of Bursal tissue, Percentage Uninfected Control: 4.3 Percentage Uninfected Control
IBDV [2]; 10 μM of drug
  long term drug effect in the second set of cultures: long term drug effect was also observed for some virus dilutions
IBDV [2]; drug for 24 hours then washed away, virions harvested at 72 hours
  duration of the virucidal effect: not transient
IBDV [2]; first set of cultures treated at 100 μM, with the exception of the 10^-5 dilution of virus
  virus propagation in the second set of cultures: did not propagate virus
IBDV [2]; with the 10^-10 dilution of virus
  lowest concentration of drug that demonstrated anti-viral activity: 1 µM
cells
  cell toxicity (MTT assay): some toxicity may be associated
IBDV [3]; added after 12 hours
  virus production when drug is added after infection: very little potential effect on virus production
IBDV [3]; added prior to the 12 hour incubation time point
  virus replication when drug is added after infection: potentially substantial inhibition of virus replication
IBDV [3]; drug remains in the culture past the one hour time point
  virus production when drug is removed by washing: significant decrease in virus production
IBDV [3]; removed prior to one hour
  virion formation when drug is removed by washing: little or no affect on virion formation
IBDV Variant A
  effectiveness in decreasing virion formation (comparison of the three compounds): most effective
IBDV Variant A; even at the high concentrations of virus
  effect in reducing IBDV production: significant effect in reducing IBDV production
IBDV Variant A; highest concentration of virus
  cytopathic effect (CPE), inverted microscope: Very little CPE
APHIS IBDV strain [4]; SW066 intravenous or prodrug oral, seven days
  bursa weight of survivors, difference between groups: No statistical significant difference
APHIS IBDV strain [4]; SW066 intravenous, APHIS IBDV 130 EID, ten birds, placebo 40%
  mortality: 10%
[1]
  inhibition of IBDV replication (virion formation): most significant decrease of virion formation
APHIS strain IBDV
  protection against IBDV (rank order): DB197>DB203>DB528>DAP092>SW066
APHIS IBDV strain [5]; 130 EID APHIS IBDV, oral one mL of five mg/mL daily, seven days, p=0.05
  bursa weights versus placebo group: higher in the drug treatment group compared to the placebo group
APHIS IBDV strain [5]; 130 EID APHIS IBDV, oral, seven days
  post-challenge titers, infected drug versus placebo group: not significantly different
APHIS IBDV strain [5]; groups of nine birds, same number died with placebo
  deaths in the challenge group: Two birds died
APHIS IBDV strain [5]; infected birds, placebo group all scored four, remaining drug birds scored four
  bursa histology score: two birds in the drug group (n=7) were scored as three
APHIS IBDV strain [5]; oral, 130 EID
  protection from IBDV induced B-cell depletion: some protection
IBDV [6]
  effect of the presence of trypsin on the drug's activity: not found to inhibit the drug's activity

— patent publication US6774144B1, “Methods and formulations for the treatment of infectious bursal disease in avian subjects” (The University of North Carolina at Chapel Hill, priority 1999, dated 2004)
